Data taken from patent publication US8148391B2 (Cephalon, Inc., priority 2006, dated 2012).
Where two headings read alike, the source gives them in different places. Blank lines part the entries; values can stand above or below the compound they belong to.

Assays:
[1] = target: T1, baculovirus-expressed ALK (Homo sapiens, UniProt Q9UM73); assay: ALK Kinase Assay (ELISA-type, time-resolved fluorescence); format: biochemical
T1 construct: host or cells: baculovirus expression system
Outline: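 Wells were coated with phospholipase C-γ at 10 μg/mL in Tris-buffered saline. Adding 30 ng/ml enzyme started the reaction, which ran at 37° C for 15 minutes before Eu-N1 PT66 antibody detection. Percent inhibition versus log10 concentration gave IC50 by variable-slope fit.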

[2] = target: T2, c-Met (cytoplasmic domain) (Homo sapiens, UniProt P08581); assay: c-Met Kinase Assay (same methods as for ALK, with modifications); format: biochemical
T2 construct: 10 ng/mL c-Met (cytoplasmic domain, Invitrogen Corporation #PV3143); purchased Invitrogen Corporation PV3143
Outline: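 IC50 values were fitted by variable-slope sigmoidal regression of percent inhibition against log compound concentration. Phosphorylation was read with Eu-N1 PT66 antibody after a 15 min, 37 °C reaction. The reaction was initiated with 10 ng/mL c-Met cytoplasmic domain on wells coated with 10 μg/mL PLC-γ in TBS.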

[3] = ALK kinase inhibition, 1 μM ATP, read-out: ALK Activity
[4] = c-Met kinase inhibition, 1 μM ATP, read-out: cMet Activity
[5] = 1 μM ATP (Km level), read-out: ALK Activity (ALK Kinase Inhibition, IC50)
[6] = 1 μM ATP (Km level), read-out: cMet Activity (c-Met Kinase Inhibition, IC50)
[7] = 1 μM ATP (Km level), 30 ng/ml ALK, 37° C., 15 minutes, read-out: ALK Activity (ALK kinase inhibition, IC50 class)
[8] = 1 μM ATP (Km level), 10 ng/mL c-Met, read-out: cMet Activity (c-Met kinase inhibition, IC50 class)
[9] = ALK kinase inhibition, 1 μM ATP (Km level), read-out: ALK Activity
[10] = c-Met kinase inhibition, 1 μM ATP (Km level), read-out: cMet Activity

T2 sequence (P08581 956-1390 limits assumed): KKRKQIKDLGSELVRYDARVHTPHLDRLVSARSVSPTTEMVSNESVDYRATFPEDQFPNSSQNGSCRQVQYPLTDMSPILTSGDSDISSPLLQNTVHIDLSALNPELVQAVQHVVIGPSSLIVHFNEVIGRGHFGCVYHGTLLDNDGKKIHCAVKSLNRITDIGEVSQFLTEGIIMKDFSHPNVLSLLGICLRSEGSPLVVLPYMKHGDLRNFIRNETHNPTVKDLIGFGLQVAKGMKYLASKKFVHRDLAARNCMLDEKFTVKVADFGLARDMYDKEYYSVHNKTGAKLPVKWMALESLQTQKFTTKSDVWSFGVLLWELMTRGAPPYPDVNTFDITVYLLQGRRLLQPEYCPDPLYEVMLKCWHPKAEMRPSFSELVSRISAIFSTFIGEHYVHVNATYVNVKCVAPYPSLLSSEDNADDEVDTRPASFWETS
T1 sequence (Q9UM73 19-1620): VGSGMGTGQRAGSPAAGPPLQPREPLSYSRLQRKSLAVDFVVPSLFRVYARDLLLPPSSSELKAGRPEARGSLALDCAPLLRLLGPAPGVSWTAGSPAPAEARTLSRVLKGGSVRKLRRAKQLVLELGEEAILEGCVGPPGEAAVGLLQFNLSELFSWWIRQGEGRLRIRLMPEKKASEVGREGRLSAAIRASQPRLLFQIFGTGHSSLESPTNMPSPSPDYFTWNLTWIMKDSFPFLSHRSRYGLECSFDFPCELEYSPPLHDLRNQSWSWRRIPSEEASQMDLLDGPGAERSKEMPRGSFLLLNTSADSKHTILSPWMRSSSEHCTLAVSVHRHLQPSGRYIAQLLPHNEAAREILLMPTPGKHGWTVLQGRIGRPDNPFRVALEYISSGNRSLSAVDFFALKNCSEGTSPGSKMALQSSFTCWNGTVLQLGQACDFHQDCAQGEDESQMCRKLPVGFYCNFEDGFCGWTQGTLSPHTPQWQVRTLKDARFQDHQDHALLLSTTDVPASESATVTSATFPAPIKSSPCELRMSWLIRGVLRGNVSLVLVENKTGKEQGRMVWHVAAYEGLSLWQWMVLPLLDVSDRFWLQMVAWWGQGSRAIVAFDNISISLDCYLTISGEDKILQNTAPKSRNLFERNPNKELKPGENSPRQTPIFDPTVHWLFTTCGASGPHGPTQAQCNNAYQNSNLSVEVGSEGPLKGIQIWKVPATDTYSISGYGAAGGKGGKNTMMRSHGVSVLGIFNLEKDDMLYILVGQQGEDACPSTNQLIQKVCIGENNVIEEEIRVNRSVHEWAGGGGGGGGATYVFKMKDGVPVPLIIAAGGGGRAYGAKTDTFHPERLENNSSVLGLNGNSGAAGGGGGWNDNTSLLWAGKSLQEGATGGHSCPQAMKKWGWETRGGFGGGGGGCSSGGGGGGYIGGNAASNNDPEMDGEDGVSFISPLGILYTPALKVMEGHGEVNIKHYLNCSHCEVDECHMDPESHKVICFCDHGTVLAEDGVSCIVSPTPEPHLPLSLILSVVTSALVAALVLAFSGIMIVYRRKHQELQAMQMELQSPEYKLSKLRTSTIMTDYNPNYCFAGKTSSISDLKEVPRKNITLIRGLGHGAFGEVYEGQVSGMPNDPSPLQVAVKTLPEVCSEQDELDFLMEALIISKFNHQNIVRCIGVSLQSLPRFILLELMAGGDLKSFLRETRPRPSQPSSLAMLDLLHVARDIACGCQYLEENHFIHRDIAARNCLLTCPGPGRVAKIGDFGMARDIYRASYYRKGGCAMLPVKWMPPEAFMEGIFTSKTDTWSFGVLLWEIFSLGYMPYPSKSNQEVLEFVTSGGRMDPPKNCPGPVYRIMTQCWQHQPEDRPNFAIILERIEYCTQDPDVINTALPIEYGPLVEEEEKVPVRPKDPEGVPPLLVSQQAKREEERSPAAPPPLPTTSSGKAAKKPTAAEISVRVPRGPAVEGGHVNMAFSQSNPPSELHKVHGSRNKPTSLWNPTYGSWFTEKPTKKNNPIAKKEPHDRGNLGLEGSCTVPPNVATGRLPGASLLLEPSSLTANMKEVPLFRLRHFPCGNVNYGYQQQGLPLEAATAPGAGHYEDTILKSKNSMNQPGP

- IC50 [1, 3]: < 100 nM
- IC50 [2, 4]: < 100 nM
Compound: CNC(=O)c1cccc(F)c1Nc1nc(Nc2ccc3c(c2)N(C(C)C)CCCO3)ncc1Cl [Example 1734, 2-[5-Chloro-2-(9-isopropyl-6,7,8,9-tetrahydro-5-oxa-9-aza-benzocyclohepten-2-ylamino)-pyrimidin-4-ylamino]-3-fluoro-N-methyl-benzamide]

- IC50 [1, 3]: 1000 to 10000 nM
- IC50 [2, 4]: < 100 nM
Compound: CN1C(=O)OCCc2cc(Nc3ncc(Cl)c(Nc4c(F)cccc4OCC(O)CO)n3)ccc21 (stereo not drawn) [Example 1717, 2-{5-Chloro-4-[2-(2,3-dihydroxy-propoxy)-6-fluoro-phenylamino]-pyrimidin-2-ylamino}-5-methyl-8,9-dihydro-5H-7-oxa-5-aza-benzocyclohepten-6-one]

- IC50 [1, 5]: < 100 nM
- IC50 [2, 6]: > 10000 nM
Compound: CCN1CC(=O)N(CC)c2cc(Nc3ncc(Cl)c(Nc4ccccc4S(=O)(=O)N(C)C)n3)c(OC)cc2C1 [Example 738, 2-[5-Chloro-2-(1,4-diethyl-7-methoxy-2-oxo-2,3,4,5-tetrahydro-1H-benzo[e][1,4]diazepin-8-ylamino)-pyrimidin-4-ylamino]-N,Ndimethyl-benzenesulfonamide]

- IC50 [1, 7]: < 100 nM
- IC50 [2, 8]: > 10000 nM
Compound: CCN1C(=O)[C@@H](NC(=O)C2CC2)CCc2c1ccc(Nc1ncc(Cl)c(N[C@H]3[C@@H](C(N)=O)[C@@H]4C=C[C@H]3C4)n1)c2OC (single isomer, unassigned) [Example 1358]

- IC50 [1, 7]: < 100 nM
- IC50 [2, 8]: 1000 to 10000 nM
Compound: Cc1cccnc1-c1ccccc1Nc1nc(Nc2ccc3c(c2)CCC(N2CCOCC2)CC3)ncc1Cl (stereo not drawn) [Example 1020, 5-Chloro-N*4*-[2-(3-methyl-pyridin-2-yl)-phenyl]-N*2*-(7-morpholin-4-yl-6,7,8,9-tetrahydro-5H-benzocyclohepten-2-yl)-pyrimidine-2,4-diamine]

- IC50 [1, 9]: < 100 nM
- IC50 [2, 10]: 100 to 1000 nM
Compound: CC1(C)CCC(=O)Nc2ccc(Nc3ncc(Cl)c(NC4C5C=CC(C5)C4C(N)=O)n3)cc21 (stereo not drawn) [Example 394, (2-exo,3-exo)-3-[5-Chloro-2-(5,5-dimethyl-2-oxo-2,3,4,5-tetrahydro-1H-benzo[b]azepin-7-ylamino)-pyrimidin-4-ylamino]-bicyclo[2.2.1]hept-5-ene-2-carboxylic acid amide]

- IC50 [1, 5]: < 100 nM
- IC50 [2, 6]: 1000 to 10000 nM
Compound: CC1(C)CCC(=O)Nc2ccc(Nc3ncc(Cl)c(Nc4ccc(N5CCC(C(=O)O)CC5)cc4-n4cccn4)n3)cc21 [Example 629, 1-{4-[5-Chloro-2-(5,5-dimethyl-2-oxo-2,3,4,5-tetrahydro-1H-benzo[b]azepin-7-ylamino)-pyrimidin-4-ylamino]-3-pyrazol-1-yl-phenyl}-piperidine-4-carboxylic acid]

- IC50 [1, 3]: 100 to 1000 nM
- IC50 [2, 4]: 100 to 1000 nM
Compound: CNC(=O)c1ccc(C(F)(F)F)cc1Nc1nc(Nc2ccc3c(c2)CCOC(=O)N3C)ncc1Cl [Example 1754, 2-[5-Chloro-2-(5-methyl-6-oxo-5,6,8,9-tetrahydro-7-oxa-5-aza-benzocyclohepten-2-ylamino)-pyrimidin-4-ylamino]-N-methyl-4-trifluoromethyl-benzamide]

- IC50 [1, 7]: < 100 nM
- IC50 [2, 8]: < 100 nM
Compound: CNC(=O)c1cc(Br)cc(F)c1Nc1nc(Nc2ccc3c(c2)CCN(CCOC)CC3)ncc1Cl [Example 1415, 5-Bromo-2-{5-chloro-2-[3-(2-methoxy-ethyl)-2,3,4,5-tetrahydro-1H-benzo[d]azepin-7-ylamino]-pyrimidin-4-ylamino}-3-fluoro-N-methyl-benzamide]

- IC50 [1, 5]: < 100 nM
- IC50 [2, 6]: > 10000 nM
Compound: COc1cc2c(cc1Nc1ncc(Cl)c(Nc3ccc(N4CCN(C)CC4)c(OC)c3)n1)CCN(CC(=O)N(C)C)CC2 [Example 804, 2-(7-{5-Chloro-4-[3-methoxy-4-(4-methyl-piperazin-1-yl)-phenylamino]-pyrimidin-2-ylamino}-8-methoxy-1,2,4,5-tetrahydro-benzo[d]azepin-3-yl)-N,N-dimethyl-acetamide]

Compound: COc1c(Nc2ncc(Cl)c(N[C@H]3[C@@H](C(N)=O)[C@@H]4C=C[C@H]3C4)n2)ccc2c1CC[C@@H](N1CCOCC1)CC2 [Example 882, (1S,2S,3R,4R)-3-[5-Chloro-2-((S)-1-methoxy-7-morpholin-4-yl-6,7,8,9-tetrahydro-5H-benzocyclohepten-2-ylamino)-pyrimidin-4-ylamino]-bicyclo[2.2.1]hept-5-ene-2-carboxylic acid amide]
- IC50 [1, 5]: < 100 nM
- IC50 ([2]; cMet Activity (c-Met Kinase Inhibition, IC50), 1 μM ATP (Km level)): > 10000 nM

Compound: CCN1C2CCC1c1cc(Nc3ncc(Cl)c(Nc4ccccc4NS(C)(=O)=O)n3)ccc1C2 (stereo not drawn) [Example 72, N-{2-[5-Chloro-2-(12-ethyl-12-aza-tricyclo[7.2.1.0*2,7*]dodeca-2(7),3,5-trien-4-ylamino)-pyrimidin-4-ylamino]-phenyl}-methanesulfonamide]
- IC50 [1, 9]: < 100 nM
- IC50 [2, 10]: 100 to 1000 nM

- IC50 [1, 5]: < 100 nM
- IC50 [2, 6]: > 10000 nM
Compound: CCN1C(=O)CCCc2c1ccc(Nc1ncc(Cl)c(Nc3ccccc3-c3nccn3C)n1)c2OC [Example 983, 7-{5-Chloro-4-[2-(1-methyl-1H-imidazol-2-yl)-phenylamino]-pyrimidin-2-ylamino}-1-ethyl-6-methoxy-1,3,4,5-tetrahydro-benzo[b]azepin-2-one]

- IC50 [1, 3]: 100 to 1000 nM
- IC50 [2, 4]: < 100 nM
Compound: CNC(=O)c1ccccc1Nc1nc(Nc2ccc3c(c2)NC(=O)CNC3)ncc1Cl [Example 1858, 2-[5-Chloro-2-(2-oxo-2,3,4,5-tetrahydro-1H-benzo[e][1,4]diazepin-8-ylamino)-pyrimidin-4-ylamino]-N-methyl-benzamide]

- IC50 [1, 9]: 100 to 1000 nM
- IC50 [2, 10]: < 100 nM
Compound: CNC(=O)c1ccccc1Nc1nc(Nc2ccc3c(c2)C2CC3CN(S(C)(=O)=O)C2)ncc1Cl (stereo not drawn) [Example 164, 2-[5-Chloro-2-(10-methanesulfonyl-10-aza-tricyclo[6.3.1.0*2,7*]dodeca-2,4,6-trien-4-ylamino)-pyrimidin-4-ylamino]-N-methyl-benzamide]

- IC50 [1, 7]: < 100 nM
- IC50 [2, 8]: 1000 to 10000 nM
Compound: COc1ccc(Nc2nc(Nc3cc4c(cc3OC)CCN(CC(=O)N(C)C)CC4)ncc2Cl)c(OC)n1 [Example 1200, 2-{7-[5-Chloro-4-(2,6-dimethoxy-pyridin-3-ylamino)-pyrimidin-2-ylamino]-8-methoxy-1,2,4,5-tetrahydro-benzo[d]azepin-3-yl}-N,N-dimethyl-acetamide]

- IC50 [1, 9]: < 100 nM
- IC50 [2, 10]: < 100 nM
Compound: CCN1C2CCC1c1cc(Nc3ncc(Cl)c(Nc4ccccc4C(=O)NC)n3)ccc1C2 (racemic) [Example 101, (+/−)-2-[5-Chloro-2-(12-ethyl-12-aza-tricyclo[7.2.1.0*2,7*]dodeca-2(7),3,5-trien-4-ylamino)-pyrimidin-4-ylamino]-N-methyl-benzamide]

- IC50 [1, 9]: < 100 nM
- IC50 [2, 10]: 1000 to 10000 nM
Compound: CS(=O)(=O)N[C@@H]1CCCC[C@H]1Nc1nc(Nc2ccc3c(c2)CCC(F)(F)CC3)ncc1Cl [Example 181, N-{(1R,2R)-2-[5-Chloro-2-(7,7-difluoro-6,7,8,9-tetrahydro-5H-benzocyclohepten-2-ylamino)-pyrimidin-4-ylamino]-cyclohexyl}-methanesulfonamide]

- IC50 [1, 3]: 100 to 1000 nM
- IC50 [2, 4]: 1000 to 10000 nM
Compound: COc1cc(N2CCOCC2)ccc1Nc1nc(Nc2ccc3c(c2)N(C(C)=O)CCCC3(C)C)ncc1Cl [Example 1598, 1-{8-[5-Chloro-4-(2-methoxy-4-morpholin-4-yl-phenylamino)-pyrimidin-2-ylamino]-5,5-dimethyl-2,3,4,5-tetrahydro-benzo[b]azepin-1-yl}-ethanone]

- IC50 [1, 3]: < 100 nM
- IC50 [2, 4]: < 100 nM
Compound: CNC(=O)c1cccc(F)c1Nc1nc(Nc2ccc3c(c2)CCOC(=O)N3C)ncc1Cl [Example 1742, 3-Fluoro-2-[5-chloro-2-(5-methyl-6-oxo-5,6,8,9-tetrahydro-7-oxa-5-aza-benzocyclohepten-2-ylamino)-pyrimidin-4-ylamino]-N-methyl-benzamide]

- IC50 [1, 5]: < 100 nM
- IC50 [2, 6]: 100 to 1000 nM
Compound: CNC(=O)[C@H]1[C@@H](Nc2nc(Nc3ccc4c(c3)CCN(CCOC)CC4)ncc2Cl)[C@@H]2C=C[C@H]1C2 (relative stereo) [Example 615, (2-exo-3-exo)-3-{5-Chloro-2-[3-(2-methoxy-ethyl)-2,3,4,5-tetrahydro-1H-benzo[d]azepin-7-ylamino]-pyrimidin-4-ylamino}-bicyclo[2.2.1]hept-5-ene-2-carboxylic acid methylamide]

Compound: CNC(=O)c1cccc(Cl)c1Nc1nc(Nc2ccc3c(c2)C2CCC(C3)N2)ncc1Cl (stereo not drawn) [Example 90, 2-[2-(12-Aza-tricyclo[7.2.1.0*2,7*]dodeca-2(7),3,5-trien-4-ylamino)-5-chloro-pyrimidin-4-ylamino]-3-chloro-N-methyl-benzamide]
- IC50 [1, 9]: 100 to 1000 nM
- IC50 [2, 10]: < 100 nM

- IC50 [1, 9]: < 100 nM
- IC50 [2, 10]: > 10000 nM
Compound: 7-[5-Chloro-4-(2-methoxy-4-morpholin-4-yl-phenylamino)-pyrimidin-2-ylamino]-1-ethyl-5,5-dimethyl-1,3,4,5-tetrahydro-benzo[b]azepin-2-one [Example 393]

- IC50 [1, 7]: 100 to 1000 nM
- IC50 [2, 8]: < 100 nM
Compound: CN1C(=O)OCCc2cc(Nc3ncc(Cl)c(Nc4c(F)cccc4OC4CCOC4)n3)ccc21 (stereo not drawn) [Example 1300, 2-{5-Chloro-4-[2-fluoro-6-(tetrahydro-furan-3-yloxy)-phenylamino]-pyrimidin-2-ylamino}-5-methyl-8,9-dihydro-5H-7-oxa-5-aza-benzocyclohepten-6-one]
